# In US20050197338A1, “Substituted pyrazole urea compounds for the treatment of inflammation” (priority 2003, published 2005):
# Target: T1, Rat IKK-2 (Rattus norvegicus, UniProt Q9QY78)
# T1 sequence (Q9QY78 1-757): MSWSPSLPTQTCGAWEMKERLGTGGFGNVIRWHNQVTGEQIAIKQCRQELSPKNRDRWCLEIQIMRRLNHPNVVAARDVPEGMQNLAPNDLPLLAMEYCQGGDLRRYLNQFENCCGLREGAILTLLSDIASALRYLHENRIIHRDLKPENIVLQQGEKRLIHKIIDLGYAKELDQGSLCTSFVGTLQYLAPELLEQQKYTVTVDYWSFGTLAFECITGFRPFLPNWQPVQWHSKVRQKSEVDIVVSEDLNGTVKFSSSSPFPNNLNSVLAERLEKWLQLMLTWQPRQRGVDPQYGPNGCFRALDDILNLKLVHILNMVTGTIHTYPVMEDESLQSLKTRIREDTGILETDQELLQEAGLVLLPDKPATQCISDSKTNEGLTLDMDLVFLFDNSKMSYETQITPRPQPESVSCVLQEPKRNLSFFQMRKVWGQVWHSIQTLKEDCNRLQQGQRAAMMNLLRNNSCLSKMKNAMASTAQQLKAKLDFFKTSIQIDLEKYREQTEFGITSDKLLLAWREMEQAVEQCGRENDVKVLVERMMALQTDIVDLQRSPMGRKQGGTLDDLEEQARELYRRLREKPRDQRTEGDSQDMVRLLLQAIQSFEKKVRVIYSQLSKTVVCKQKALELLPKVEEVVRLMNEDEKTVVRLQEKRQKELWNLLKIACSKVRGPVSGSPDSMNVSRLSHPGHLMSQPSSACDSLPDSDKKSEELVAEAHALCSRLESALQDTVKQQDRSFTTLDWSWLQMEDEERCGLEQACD
# Assay: Rat IKK-2 enzyme assay
# Type: biochemical
# Conditions: read-out: IC50 (μM) rIKK-2
# Method: Kinase activity was measured using a biotinylated […] peptide (Gly-Leu-Lys-Lys-Glu-Arg-Leu-Leu-Asp-Asp-Arg-His-Asp-Ser32-Gly-Leu-Asp-Ser36-Met-Lys-Asp-Glu-Glu) (American Peptide Co.). 20 μL of the standard reaction mixture contained 5 μM biotinylated IκBα peptide, 0.1 μCi/reaction [γ-^33P] ATP (Amersham) (about 1×10^5 cpm), 1 μM ATP (Sigma), 1 mM DTT (Sigma), 2 mM MgCl2 (Sigma), 2 mM MnCl2 (Sigma), 10 mM NaF (Sigma), 25 mM Hepes (Sigma) buffer, pH. 7.6 and 20 μL enzyme solution (50 nM/rxn or 200 ng/rxn) and 10 μL inhibitor in a final volume of 50 μL. After incubation at 25° C. for 60 min, 150 μL resin was added to each well to stop the reaction. Resin was mixed and allowed to settle for 1 h and 50 μL of supernatant was removed to a Micolite 2 flat bottom plate (Dynex). 150 μL of scintillation fluid (Microscint 40) (Packard) was added to each well. Incorporation of [γ-^33P] ATP was measured using a Top-Count NXT (Packard).
row,Compound,IC50 [µM]
1,"CCOc1cc(-n2cc(NC(N)=O)c(C(N)=O)n2)ccc1Br [Example 3, 4-[(aminocarbonyl)amino]-1-(4-bromo-3-ethoxyphenyl)-1H-pyrazole-3-carboxamide]",0.787
2,"Cc1cc(I)ccc1-n1cc(NC(N)=O)c(C(N)=O)n1 [Example 4, 1-(4-iodo-2-methyl-phenyl)-4-ureido-1H-pyrazole-3-carboxylic acid amide]",1.93
3,"Cc1cc(-c2cccc(O)c2)ccc1-n1cc(NC(N)=O)c(C(N)=O)n1 [Example 5, 4-[(aminocarbonyl)amino]-1-(3′-hydroxy-3-methyl-1,1′-biphenyl-4-yl)-1H-pyrazole-3-carboxamide]",3.71
4,"CNC(=O)Nc1cn(-c2cccc(Br)c2)nc1C(N)=O [Example 15, 1-(3-bromophenyl)-4-{[(methylamino)carbonyl]amino}-1H-pyrazole-3-carboxamide]",4.45
5,"CNC(=O)Nc1cn(-c2ccc(Br)cc2)nc1C(N)=O [Example 16, 1-(4-bromophenyl)-4-{[(methylamino)carbonyl]amino}-1H-pyrazole-3-carboxamide]",2.83
6,"NC(=O)Nc1cn(-c2ccc(Br)cc2)nc1C(N)=O [Example 19, 1-(1-(4-bromophenyl)-3-carbamoyl-1H-pyrazol-4-yl)urea]",0.352
7,"NC(=O)Nc1cn(-c2cccc(-c3ccc(F)cc3O)c2)nc1C(N)=O [Example 92, 4-[(aminocarbonyl)amino]-1-(4′-fluoro-2′-hydroxy-1,1′-biphenyl-3-yl)-1H-pyrazole-3-carboxamide]",2.66
8,"NC(=O)Nc1cn(-c2cccc(-c3cc(F)ccc3O)c2)nc1C(N)=O [Example 93, 4-[(aminocarbonyl)amino]-1-(5′-fluoro-2′-hydroxy-1,1′-biphenyl-3-yl)-1H-pyrazole-3-carboxamide]",1.82
9,"NC(=O)Nc1cn(-c2ccc(-c3ccc(F)cc3O)cc2)nc1C(N)=O [Example 98, 4-[(aminocarbonyl)amino]-1-(4′-fluoro-2′-hydroxy-1,1′-biphenyl-4-yl)-1H-pyrazole-3-carboxamide]",0.668
10,"NC(=O)Nc1cn(-c2ccc(-c3cc(F)ccc3O)cc2)nc1C(N)=O [Example 99, 4-[(aminocarbonyl)amino]-1-(5′-fluoro-2′-hydroxy-1,1′-biphenyl-4-yl)-1H-pyrazole-3-carboxamide]",0.555
11,"NC(=O)Nc1cn(-c2ccc(-c3ccccc3)cc2)nc1C(N)=O [Example 101, 4-[(aminocarbonyl)amino]-1-(1,1′-biphenyl-4-yl)-1H-pyrazole-3-carboxamide]",1.89
12,"NC(=O)Nc1cn(-c2ccc(-c3cc4ccccc4[nH]3)cc2)nc1C(N)=O [Example 141, 4-[(aminocarbonyl)amino]-1-[4-(1H-indol-2-yl)phenyl]-1H-pyrazole-3-carboxamide]",4
13,"CN(C)CCN(C)C(=O)c1ccc(-c2ccc(-n3cc(NC(N)=O)c(C(N)=O)n3)cc2)cc1F [Example 160, 4-[(aminocarbonyl)amino]-1-(4′-{[[2-(dimethylamino)ethyl](methyl)amino]carbonyl}-3′-fluoro-1,1′-biphenyl-4-yl)-1H-pyrazole-3-carboxamide]",7.19
14,"NC(=O)Nc1cn(-c2ccc(-c3ccc(C(=O)OCc4ccccc4F)c(F)c3)cc2)nc1C(N)=O [Example 162, 2-fluorobenzyl 4′-{3-(aminocarbonyl)-4-[(aminocarbonyl)amino]-1H-pyrazol-1-yl}-3-fluoro-1,1′-biphenyl-4-carboxylate]",13.6
15,"NC(=O)Nc1cn(-c2ccc(-c3ccc(C(=O)OCc4cccc(F)c4)c(F)c3)cc2)nc1C(N)=O [Example 163, 3-fluorobenzyl 4′-{3-(aminocarbonyl)-4-[(aminocarbonyl)amino]-1H-pyrazol-1-yl}-3-fluoro-1,1′-biphenyl-4-carboxylate]",17.4
16,"NC(=O)Nc1cn(-c2ccc(-c3ccc(C(=O)OCc4ccc(F)cc4)c(F)c3)cc2)nc1C(N)=O [Example 164, 4-fluorobenzyl 4′-{3-(aminocarbonyl)-4-[(aminocarbonyl)amino]-1H-pyrazol-1-yl}-3-fluoro-1,1′-biphenyl-4-carboxylate]",7.27
17,"CC(C)(C)OC(=O)COc1cccc(-c2ccc(-n3cc(NC(N)=O)c(C(N)=O)n3)cc2)c1 [Example 174, tert-butyl [(4′-{3-(aminocarbonyl)-4-[(aminocarbonyl)amino]-1H-pyrazol-1-yl}-1,1′-biphenyl-3-yl)oxy]acetate]",2.49
18,"N#CCCc1cccc(-c2ccc(-n3cc(NC(N)=O)c(C(N)=O)n3)cc2)c1 [Example 186, 4-[(aminocarbonyl)amino]-1-[3′-(2-cyanoethyl)-1,1′-biphenyl-4-yl]-1H-pyrazole-3-carboxamide]",0.475
19,"NC(=O)Nc1cn(-c2ccc(-c3ccc(-c4nnn[nH]4)cc3)cc2)nc1C(N)=O [Example 187, 4-[(aminocarbonyl)amino]-1-[4′-(1H-tetrazol-5-yl)-1,1′-biphenyl-4-yl]-1H-pyrazole-3-carboxamide]",0.441

# These reach a lower IC50. Values come first.
row,IC50 [µM],Compound
1,0.108,"NC(=O)Nc1cn(-c2ccc(Br)c(C(F)(F)F)c2)nc1C(N)=O [Example 1, 4-[(aminocarbonyl)amino]-1-[4-bromo-3-(trifluoromethyl)phenyl]-1H-pyrazole-3-carboxamide]"
2,0.121,"NC(=O)Nc1cn(-c2ccc(-c3cccc(O)c3)c(Cl)c2)nc1C(N)=O [Example 7, 4-[(aminocarbonyl)amino]-1-(2-chloro-3′-hydroxy-1,1′-biphenyl-4-yl)-1H-pyrazole-3-carboxamide]"
3,0.089,"Cc1cc(-n2cc(NC(N)=O)c(C(N)=O)n2)ccc1I [Example 8, 1-(4-iodo-3-methyl-phenyl)-4-ureido-1H-pyrazole-3-carboxylic acid amide]"
4,0.22,"N#CCOc1ccc(F)cc1-c1cccc(-n2cc(NC(N)=O)c(C(N)=O)n2)c1 [Example 94, 4-[(aminocarbonyl)amino]-1-[2′-(cyanomethoxy)-5′-fluoro-1,1′-biphenyl-3-yl]-1H-pyrazole-3-carboxamide]"
5,0.18,"NC(=O)Nc1cn(-c2ccc(-c3ccc(C(=O)O)c(F)c3)cc2)nc1C(N)=O [Example 97, 4′-{3-(aminocarbonyl)-4-[(aminocarbonyl)amino]-1H-pyrazol-1-yl}-3-fluoro-1,1′-biphenyl-4-carboxylic acid]"
6,0.171,"N#Cc1ccc(-c2ccc(-n3cc(NC(N)=O)c(C(N)=O)n3)cc2)cc1 [Example 100, 4-[(aminocarbonyl)amino]-1-(4′-cyano-1,1′-biphenyl-4-yl)-1H-pyrazole-3-carboxamide]"
7,0.033,"N#CCOc1ccc(F)cc1-c1ccc(-n2cc(NC(N)=O)c(C(N)=O)n2)cc1 [Example 172, 4-[(aminocarbonyl)amino]-1-[2′-(cyanomethoxy)-5′-fluoro-1,1′-biphenyl-4-yl]-1H-pyrazole-3-carboxamide]"
8,0.105,"N#CCOc1cc(F)ccc1-c1ccc(-n2cc(NC(N)=O)c(C(N)=O)n2)cc1 [Example 173, 4-[(aminocarbonyl)amino]-1-[2′-(cyanomethoxy)-4′-fluoro-1,1′-biphenyl-4-yl]-1H-pyrazole-3-carboxamide]"
9,0.181,"NC(=O)COc1cccc(-c2ccc(-n3cc(NC(N)=O)c(C(N)=O)n3)cc2)c1 [Example 175, 4-[(aminocarbonyl)amino]-1-[3′-(2-amino-2-oxoethoxy)-1,1′-biphenyl-4-yl]-1H-pyrazole-3-carboxamide]"
10,0.297,"NC(=O)Nc1cn(-c2ccc(S(=O)(=O)C3CCCCC3)cc2)nc1C(N)=O [Example 192, 1-(3-carbamoyl-1-(4-(cyclohexylsulfonyl)phenyl)-1H-pyrazol-4-yl)urea]"
11,0.173,"NC(=O)Nc1cn(-c2ccc(S(=O)(=O)c3ccccc3F)cc2)nc1C(N)=O [Example 194, 1-(1-(4-(2-fluorophenylsulfonyl)phenyl)-3-carbamoyl-1H-pyrazol-4-yl)urea]"
12,0.023,"NC(=O)Nc1cn(-c2ccc(S(=O)(=O)c3ccc(F)cc3)cc2)nc1C(N)=O [Example 204, 1-(1-(4-(4-fluorophenylsulfonyl)phenyl)-3-carbamoyl-1H-pyrazol-4-yl)urea]"
13,0.258,"NC(=O)Nc1cn(-c2ccc(Sc3ccccn3)cc2)nc1C(N)=O [Example 205, 1-(3-carbamoyl-1-(4-(pyridin-2-ylthio)phenyl)-1H-pyrazol-4-yl)urea]"
